Data from patent US20240294570A1, “ENZYMATICALLY FORMING INTRANUCLEAR PEPTIDE ASSEMBLIES FOR SELECTIVELY KILLING INDUCED PLURIPOTENT STEM CELLS” (BRANDEIS UNIVERSITY, priority 2021, published 2024).
Non-standard residues stand in square brackets, D forms with d. Residues, ends and D or L forms follow the SMILES beside them. *: point of attachment. pY = N[C@@H](Cc1ccc(OP(=O)(O)O)cc1)C(=O)O; NBD = O=[N+]([O-])c1ccc(*)c2nonc12; βAla = NCCC(=O)O

Legend:
[1] = test system: HS-5 cells; assay: Cytotoxicity against HS-5 cells (MTT assay); type: cell-based, human; conditions: 400 μM, 2 h
Protocol: Cell Culture: Human induced pluripotent stem cell line A21 was generated from human normal dermal fibroblasts by using the StemRNA™-NM Reprogramming kit (Stemgent, Cat #00-0076). hiPSCs were routinely cultured and passaged on 6-well plates coated with 0.25 μg/cm^2 iMatrix-511 (Recombinant Laminin-511) (ReproCell) with NutriStem XF/FFTM medium (Biological Industries). HS-5 cell line and HEK293 cell line were purchased from American Type Culture Collection (ATCC, USA). HS-5 cells were cultured in Dulbecco's Modified Eagle Medium (DMEM) supplemented with 10% fetal bovine serum (FBS), 100 U/mL penicillin and 100 μg/mL streptomycin. HEK293 cells were cultured in Minimal Essential Medium (MEM) supplemented with 10% fetal bovine serum (FBS), 100 U/mL penicillin and 100 μg/mL streptomycin. All cells were maintained at 37° C. in a humidified atmosphere of 5% CO2.
Cell Viability of Differentiated Cells: Cytotoxicity against HS-5 cells and HEK293 cells was determined by using MTT assay. […] The absorbance of each well at 595 nm was measured by a DTX880 Multimode Detector. The results were calculated as cell viability percentage relative to untreated cells. […]

[2] = test system: ALP; assay: Dephosphorylation rate measurement (LC-MS)
Protocol: The reaction mixtures were analyzed with LC-MS.
Thus, the conversion of the phosphopentapeptides to their corresponding peptides was examined over time.

[3] = test system: iPSCs; assay: CLSM imaging of peptide assemblies in iPSCs; type: cell-based, human
Protocol: Confocal Laser Scanning Microscopy (CLSM) Imaging: For live cell imaging, cells in exponential growth phase were seeded in a confocal dish (3.5 cm) at 1.0×10^5 cells per dish and then incubated in incubator for 24 h. We removed culture medium, and added fresh medium containing precursors for different time points. After removing the medium and washing the cells with live cell imaging solution (2 mL×2), the cells were used for CLSM imaging. For time-dependent live cell imaging, cells in exponential growth phase were seeded in a confocal dish (3.5 cm) at 1.0×10^5 cells per dish and then incubated in incubator for 24 h. After removing culture medium, we treated the cells with 1 mL of Hoechst 33342 (1 μg mL^−1) for 10 minutes. After being washed with culture medium (2 mL×2), the cells were incubated with fresh medium containing precursor 5 in a Tokai Hit stage top incubator (STXF-WSKMX-SET) to be used for CLSM imaging. All the CLSM images were obtained using Zeiss LSM 880 confocal microscopy at the lens of 63× with oil. The lasers used are 405 nm and 488 nm.
Because the fluorescence of NBD increases drastically from unassembled to assembled state, confocal laser scanning microscopy (CLSM) was suitable to reveal the cellular location of the peptide assemblies formed after dephosphorylation catalyzed by ALP. […] The blackness in nuclei overlaps well with the strong fluorescence. […] The results confirms that the nucleus-targeting mainly originates from the ALP catalyzed dephosphorylation.
To trace the dynamics of the formation and distribution of 5 inside iPSC cells, time-lapse CLSM was also used to image the changes of the fluorescence in the iPSCs incubated by 5 (400 μM). Using one cell as a representative case, after 6 minutes incubation fluorescent puncta appear on the membrane, likely originating from the aggregates of assemblies of 5 and those of 6 generated by the dephosphorylation catalyzed by ALP. […] After 24 minutes incubation, fluorescence starts to grow in the cytoplasm. Considering the LLLLY motif in SEQ ID NO: 2 constitutes the transmembrane domains of 18 human membrane proteins, it is possible that the affinity of 5 or 6 to membrane allows the assemblies of the mixture of 5 and 6 to interact with cellular membranes, which then facilitates nuclear localization. At about 28 minutes of incubation, fluorescence appears in the nucleus. Moreover, the nuclei shrink after the assemblies emerge in the nuclei. In addition, the nuclei also show nuclear blebbing (Stephens et al., “Chromatin Histone Modifications and Rigidity Affect Nuclear Morphology Independent of Lamins,” Mol. Biol. Cell 29(2):220-233 (2018), which is hereby incorporated by reference in its entirety). The shrinkage of nuclei and nuclear blebbing likely associate with iPSC death. To further examine the dynamics of EISA-formed peptide assemblies in iPSCs over different time, the increase of fluorescence in two cells over 2 hours was monitored; their nuclei, A and B, are shown in FIG. 10A. […] The mean fluorescent intensity in Nucleus A starts to increase at 28 minutes and levels off after 110 minutes. For Nucleus B, the mean fluorescent intensity keeps increasing from 38 minutes. The increases of the fluorescence in the nuclei and nucleoli are synchronous. […] The assemblies inside the nuclei or near nuclear membrane induce nuclear blebbing and shrinkage of nuclei, which likely contributes to the cell death.

[4] = Critical micelle concentration (CMC) measurement with pyrene probe; type: physicochemical
Protocol: Critical Micelle Concentration ((MC) Measurement: The CMCs were determined using pyrene as the fluorescent probe. Different concentrations of compounds were prepared in pyrene-saturate solutions. The fluorescence spectra of pyrene solutions with different concentration compounds were obtained. The intensity ratio of 378 nm/393 nm (I378/I393) was determined by a Synergy H1 hybrid multi-mode microplate reader. Plot I378/I393 against the concentrations of compounds. The concentration at the turning point is the CMC.

[5] = 400 μM, time-lapse CLSM, one representative cell

## CC(C)C[C@H](NC(=O)CCNc1ccc([N+](=O)[O-])c2nonc12)C(=O)N[C@@H](CC(C)C)C(=O)N[C@@H](CC(C)C)C(=O)N[C@@H](CC(C)C)C(=O)N[C@@H](Cc1ccc(OP(=O)(O)O)cc1)C(=O)O [compound 5, NBD-βA-LLLLpY] ({NBD-βAla}-LLLL[pY]-OH)
[1]
  cytotoxicity towards HS-5 cells: slight cytotoxicity
[2]; 100 μM, 0.1 U/mL ALP, time point 40 minutes
  fraction hydrolyzed by ALP: about 24%
[2]; 400 μM, 0.1 U/mL ALP
  final dephosphorylation ratio: 69.1%
[2]; 400 μM, 0.5 U/mL ALP, after 5 hours of incubation
  dephosphorylation ratio: 93.8%
[2]; 0.1 U/mL ALP, after 1 hour of incubation
  fraction turned into 6: 32.7%
[2]; 0.1 U/mL ALP, after 2 hours of incubation
  fraction turned into 6: 49.6%
[2]; alkaline phosphatase (ALP) in PBS, half-life of dephosphorylation, 100 μM, 0.5 U/mL ALP
  half-life at 100 μM: 27.3 min
[2]; alkaline phosphatase (ALP) in PBS, half-life of dephosphorylation, 200 μM, 0.5 U/mL ALP
  half-life at 200 μM: 21.6 min
[2]; alkaline phosphatase (ALP) in PBS, half-life of dephosphorylation, 400 μM, 0.1 U/mL ALP
  half-life at 400 μM: 122 min
[2]; alkaline phosphatase (ALP) in PBS, half-life of dephosphorylation, 400 μM, 0.5 U/mL ALP
  half-life at 400 μM: 30.6 min
[3]; 200 μM
  NBD fluorescence in iPSCs: hardly any fluorescence in the cells
[3]; 400 μM plus DQB 5 μM, 2 hours
  NBD fluorescence in iPSCs with ALP inhibitor: little fluorescence in cells
[3]; 400 μM, 2 hours
  NBD fluorescence in iPSCs (location of peptide assemblies): strong NBD fluorescence in nuclei
[3]; [5]
  incubation time at which fluorescence appears in the nucleus: about 28 minutes
  incubation time at which fluorescence starts to grow in the cytoplasm: 24 min
  incubation time at which fluorescent puncta appear on the membrane: 6 min
[3]; 400 μM, treatment time 1 hour
  NBD fluorescence in iPSC nuclei: weaker fluorescence
[4]
  critical micelle concentration (CMC): 86.1 µM
